In patent US10227290B2, “Glycosphingolipids for use in modulating immune responses” (The Regents of the University of California, priority 2012, dated 2019):

Experiments:
[1] = molecular target: T1, Mouse CD1d (mCD1d) tetramer / TCR of NKT cell hybridomas (Mus musculus, UniProt P11609); test: Staining of NKT cell hybridomas with sphingolipid-loaded mCD1d tetramers (flow cytometry); format: binding; settings: mCD1d tetramer loaded with the sphingolipid
T1 construct: purchased NIH Tetramer Core Facility
T1 sequence (P11609 19-297 limits assumed): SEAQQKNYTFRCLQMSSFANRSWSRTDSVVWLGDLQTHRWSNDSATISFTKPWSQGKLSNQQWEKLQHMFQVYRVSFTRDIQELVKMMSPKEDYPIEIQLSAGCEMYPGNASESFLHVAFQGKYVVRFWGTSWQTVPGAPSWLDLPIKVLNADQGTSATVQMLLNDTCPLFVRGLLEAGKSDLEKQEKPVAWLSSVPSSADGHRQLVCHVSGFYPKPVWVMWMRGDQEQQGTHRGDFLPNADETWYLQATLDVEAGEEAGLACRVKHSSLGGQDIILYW
T1 sequence (P01887 21-119 partner): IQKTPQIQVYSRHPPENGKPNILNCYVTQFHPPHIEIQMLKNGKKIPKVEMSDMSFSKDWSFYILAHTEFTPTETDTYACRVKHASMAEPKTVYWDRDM
Protocol: FIGS. 4A-4C illustrate that α-GalCerBf binds CD1d and activates murine NKT cells in vitro. FIG. 4A: NKT cell hybridomas (see Example 4) were stained with anti-CD3 antibodies, and empty mCD1d tetramers or CD1d tetramers were loaded with α-GalCerBf or KRN7000. Flow cytometry plots representative of three independent experiments are shown. FIG. 4B: Hybridomas were cultured with BMDCs (bone marrow-derived dendritic cells) pre-pulsed with LPS or LPS+α-GalCerBf in the presence of control Ig or anti-CD1d blocking antibodies. IL-2 secretion was measured in supernatants 16 hr later. Data are representative of three independent experiments. FIG. 4C: Liver mononuclear cells were cultured with splenocytes plus increasing amounts of α-GalCerBf in the presence or absence of anti-CD1d blocking antibodies. IFN-γ secretion was measured in supernatants on day 5. Data are representative of three independent experiments.
The reagents used in Examples 4 and 5 for the immunology studies were as follows. PBS-57 loaded mCDld tetramers, which were used for mouse experiments, and unloaded mCD1d monomers were obtained from the NIH Tetramer Core Facility. For loading, monomers were incubated with KRN7000 or α-GalCerBf diluted in DMSO at 6 fold molar excess at 37° C. for 3 hrs in the presence of pepstatin, leupeptin, EDTA and TWEEN 20. Samples were concentrated using a 30K microconcentrator. Monomers were tetramerized by incubation with streptavidin-conjugated allophycocyanin (APC) (Molecular Probes, Inc., Eugene, Oreg.) at a 1:1 ratio. Staining was performed at room temperature for 1 hr. […] Viability was determined by staining cells with LIVE/DEAD fixable Aqua stain (Invitrogen Life Technologies, Carlsbad, Calif.) per manufacturer's instructions. […]
Synthetic CD1d tetramers were loaded with each sphingolipid, KRN7000 and α-GalCerBf), and the capability of the sphingolipid/CD1d-tetramer complex (hereafter called ‘tetramer’) to stain three NKT-cell-derived hybridomas was determined (see, e.g., Brossay et al., J. Immunol. […]

[2] = tested on: Peripheral blood mononuclear cells (PBMCs), CD3+Vα24+ NKT cells; test: In vitro expansion of CD3+Vα24+ NKT cells from human PBMCs; format: cell-based; settings: 13 days; 0.1 μg/ml KRN7000, 1 μg/ml α-GalCerBf, 1 μg/ml ceramideBf
Protocol: FIGS. 6A and 6B illustrate that α-GalCerBf binds human CD1d and activates human NKT cells in vitro. FIG. 6A: PBMCs were cultured for 13 days with 0.1 μg/mlKRN7000, 1 μg/ml α-GalCerBf, or 1 μg/ml ceramideBf. Dot plots show CD3^+Vα24^+NKT cells pre- and post-expansion. The data shown are representative of at least two individual experiments performed with six individual donors. FIG. 6B: Human NKT cells were purified after two rounds of expansion with 1 μg/ml α-GalCerBf and restimulated with 10 μg/ml α-GalCerBf in the presence or absence of control Ig or anti-Cd1d blocking antibodies. IFN-γ secretion was measured in supernatants 40-48 hours later. Data are representative of two independent experiments.
The capability of α-GalCerBf to stimulate freshly isolated NKT cells was determined. A first experiment was performed to determine whether Vα24^+ cells could be expanded in vitro with α-GalCerBf as previously described for KRN7000 (see, e.g., Rogers et al., J. Immunol. Meth. 285:197-214 (2004)). Peripheral blood mononuclear cells (PBMCs) were cultured with 0.1 μg/ml KRN7000, 1 μg/ml α-GalCerBf, or 1 μg/ml ceramideBf for 13 days. The presence of CD3 Vα24^+ cells was then assessed by flow cytometry. At least two individual experiments performed with six individual donors. […] IFN-γ secretion was measured in supernatants 40-48 hours later.

[3] = tested on: cyclophosphamide (CY) induced diabetes; settings: NOD mouse model; Sharif et al.; cited from earlier work

## CCCCCCCCCCCCCCCCCCCCCCCCCC(=O)N[C@@H](CO[C@H]1O[C@H](CO)[C@H](O)[C@H](O)[C@H]1O)[C@H](O)[C@H](O)CCCCCCCCCCCCCC [KRN7000]
[1]; DN3A4-1.2 (1.2) hybridoma
  MFI (Median Fluorescence Intensity) of tetramer staining: 2151
[1]; DN3A4-1.4 (1.4) hybridoma
  MFI (Median Fluorescence Intensity) of tetramer staining: 683
[1]; N38-2C12 (2C12) hybridoma
  MFI (Median Fluorescence Intensity) of tetramer staining: 8932
[2]
  Expansion of a population of CD3+Vα24+ cells: showed an expansion
[3]
  Effect on cyclophosphamide (CY) induced diabetes: prevents
